Experimental findings from PubChem BioAssay (NCI) are described below.

SMILES strings stand for the structures.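 48-hour exposure; five concentrations; linearly interpolated endpoints. At the GI50, growth is halved. TGI is the concentration that stops growth completely.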

Test systems include NCI-H522 lung; SF-295 CNS; OVCAR-4 ovarian; TK-10 renal; HL-60(TB) leukemia; RPMI-8226 leukemia; SN12C renal; OVCAR-5 ovarian; HOP-92 NSCLC; RXF 393 renal.
What all share (test): NCI tumour cell line growth inhibition, 48 h

As for `COC(=O)c1ccc2c(c1)sc1nc(-c3ccc(OC)cc3)cn12`, the TGI in the assay with NCI-H522 lung, in the assay on SF-295 CNS, in the assay with OVCAR-4 ovarian, in the assay with TK-10 renal, in the assay on HL-60(TB) leukemia and in the assay on RPMI-8226 leukemia was more than 100 µM throughout. The TGI in the assay on SN12C renal, with OVCAR-5 ovarian, with HOP-92 NSCLC and with RXF 393 renal was more than 100 µM in each case.

`NC(=O)CCSC(CC(=O)c1ccc(Cl)cc1)c1ccc(Cl)cc1` (stereo not given): the TGI in the assay with NCI-H522 lung was 80.3 µM; in the assay with SF-295 CNS it was 78.1 µM; in the assay on OVCAR-4 ovarian it was 45.2 µM; in the assay on TK-10 renal, more than 100 µM; in the assay on HL-60(TB) leukemia it was 25.6 µM; in the assay on RPMI-8226 leukemia, 5.71 µM. Besides, the TGI in the assay with SN12C renal was 83.2 µM; with OVCAR-5 ovarian, more than 100 µM; with HOP-92 NSCLC it was 45.5 µM; with RXF 393 renal it was 32.6 µM.

As to `CCCC[C@H]1C(=O)O[C@H](C)[C@H](NC(=O)c2cccc(NC=O)c2OC)C(=O)O[C@@H](C)[C@@H]1OC(=O)CC(C)C` (tested in a mixture with another compound), the TGI amounted to 21 µM in the assay with NCI-H522 lung; 30.3 µM in the assay on SF-295 CNS; 21.1 µM with OVCAR-4 ovarian; 30.7 µM with TK-10 renal; 35.8 µM with HL-60(TB) leukemia; 28.2 µM in the assay on RPMI-8226 leukemia. In addition, the TGI was 44.2 µM in the assay with SN12C renal, 51.6 µM in the assay with OVCAR-5 ovarian, 27.2 µM with HOP-92 NSCLC and 34.6 µM in the assay with RXF 393 renal.

Turning to `COc1ccc(N=Cc2ccc(N(CCC#N)S(=O)(=O)c3ccccc3)cc2C)cc1`, the TGI in the assay with NCI-H522 lung was more than 100 µM; with SF-295 CNS, more than 100 µM; in the assay with OVCAR-4 ovarian, more than 100 µM; in the assay on TK-10 renal, 87.6 µM; in the assay on HL-60(TB) leukemia, more than 100 µM; with RPMI-8226 leukemia, more than 100 µM. Further, the TGI in the assay on SN12C renal, in the assay on OVCAR-5 ovarian, in the assay with HOP-92 NSCLC and in the assay with RXF 393 renal was more than 100 µM in each case.

For `O=C(O)CCCN=C(C1=C(O)C(=O)N(c2ccccc2)C1=O)c1ccccc1`, the TGI with NCI-H522 lung, in the assay with SF-295 CNS, in the assay on OVCAR-4 ovarian, in the assay on TK-10 renal, in the assay on HL-60(TB) leukemia and in the assay on RPMI-8226 leukemia was more than 100 µM in each case. The TGI in the assay with SN12C renal, in the assay on OVCAR-5 ovarian, with HOP-92 NSCLC and in the assay on RXF 393 renal was more than 100 µM each time.

As for `COc1cc(/C=C2\N=C(c3ccccc3)N(c3nc4ccc(Sc5ccccc5)cc4[nH]3)C2=O)cc(OC)c1OC`, the TGI in the assay with NCI-H522 lung is 48 µM; in the assay with SF-295 CNS it was 90.1 µM; in the assay on OVCAR-4 ovarian, more than 100 µM; in the assay on TK-10 renal it was 57.4 µM; in the assay with HL-60(TB) leukemia it was 37.8 µM; in the assay with RPMI-8226 leukemia it was 56.4 µM. The TGI is 92.4 µM with SN12C renal, more than 100 µM in the assay on OVCAR-5 ovarian, more than 100 µM in the assay with HOP-92 NSCLC and more than 100 µM in the assay with RXF 393 renal.

`Cc1cc(=O)n2c3c(c4c(cc13)c(CN(C)C)cc(=O)n4C)OC2`: the TGI is 28.4 µM with NCI-H522 lung; more than 72.7 µM in the assay with SF-295 CNS; more than 77.9 µM in the assay with OVCAR-4 ovarian; more than 88.6 µM in the assay on TK-10 renal; more than 100 µM in the assay on HL-60(TB) leukemia; more than 100 µM with RPMI-8226 leukemia. In addition, the TGI in the assay on SN12C renal was more than 100 µM; with OVCAR-5 ovarian it was more than 77 µM; in the assay on HOP-92 NSCLC, 97.6 µM; with RXF 393 renal it was 28.7 µM.

For the compound `O=C([CH-]C(=O)c1ccccc1)c1ccccc1.O=C([CH-]C(=O)c1ccccc1)c1ccccc1.O=C([CH-]C(=O)c1ccccc1)c1ccccc1.[Cl-].[Hf+4]`, the GI50 is 12.6 µM in the assay on NCI-H522 lung; 14.9 µM in the assay with SF-295 CNS; 14.6 µM with OVCAR-4 ovarian; 18.7 µM in the assay with TK-10 renal; 18.1 µM in the assay with HL-60(TB) leukemia; 13.5 µM with RPMI-8226 leukemia. The GI50 with SN12C renal is 41.3 µM; with OVCAR-5 ovarian, 30.8 µM; in the assay with HOP-92 NSCLC it was 10.9 µM; in the assay with RXF 393 renal it was 7.68 µM. Further, the TGI is 62.8 µM in the assay with NCI-H522 lung; more than 100 µM with SF-295 CNS; more than 100 µM with OVCAR-4 ovarian; 53.8 µM with TK-10 renal; more than 100 µM in the assay on HL-60(TB) leukemia; 82.1 µM in the assay on RPMI-8226 leukemia. For the same compound, the TGI in the assay on SN12C renal is more than 100 µM; in the assay with OVCAR-5 ovarian it was more than 100 µM; in the assay with HOP-92 NSCLC, 36.1 µM; in the assay on RXF 393 renal it was 23.2 µM.

Regarding `N#Cc1c(-c2ccc(Cl)cc2)c2c([nH]c1=O)-c1cc([N+](=O)[O-])ccc1CCC2`, the TGI in the assay on NCI-H522 lung is 41.8 µM; with SF-295 CNS, 45.3 µM; in the assay on OVCAR-4 ovarian it was more than 100 µM; in the assay on TK-10 renal, 69.5 µM; in the assay with HL-60(TB) leukemia, 65.1 µM; in the assay on RPMI-8226 leukemia, more than 100 µM. In addition, the TGI in the assay with SN12C renal stood at 34.7 µM; in the assay with OVCAR-5 ovarian, 37.6 µM; in the assay on HOP-92 NSCLC, 38.5 µM; in the assay on RXF 393 renal, 37.6 µM.

`O=S(=O)(O)c1ccc2c(N=Nc3ccccc3)c(O)ccc2c1`: the TGI in the assay on NCI-H522 lung, in the assay on SF-295 CNS, with OVCAR-4 ovarian, with TK-10 renal, in the assay on HL-60(TB) leukemia and in the assay with RPMI-8226 leukemia was more than 100 µM throughout. For the same compound, the TGI in the assay on SN12C renal, in the assay on OVCAR-5 ovarian, in the assay on HOP-92 NSCLC and with RXF 393 renal was more than 100 µM each time.

Consider `COc1ccc(N=Nc2c(N)nn(C)c2N)cc1`, for which the TGI with NCI-H522 lung, with SF-295 CNS, with OVCAR-4 ovarian, with TK-10 renal, with HL-60(TB) leukemia and with RPMI-8226 leukemia was more than 100 µM in each case. The TGI in the assay on SN12C renal, with OVCAR-5 ovarian, in the assay with HOP-92 NSCLC and with RXF 393 renal was more than 100 µM each time.

For `CCN(CCO)CCNc1ccc(C)c2sc3ccccc3c(=O)c12`, the TGI was 11.4 µM in the assay with NCI-H522 lung; 10.1 µM with SF-295 CNS; 21.7 µM in the assay on OVCAR-4 ovarian; 21.4 µM in the assay with TK-10 renal; 11.3 µM in the assay with HL-60(TB) leukemia; 20.3 µM with RPMI-8226 leukemia. The TGI in the assay on SN12C renal turned out to be 23.9 µM; in the assay with OVCAR-5 ovarian, 12.5 µM; in the assay on HOP-92 NSCLC, 14.1 µM; in the assay with RXF 393 renal, 5.64 µM.

With `O=C(CSSCC(=O)OCCS(=O)(=O)Nc1ccc(Br)cc1)OCCS(=O)(=O)Nc1ccc(Br)cc1`, the TGI in the assay with NCI-H522 lung was 24 µM; with SF-295 CNS, more than 100 µM; in the assay on OVCAR-4 ovarian, 33 µM; with TK-10 renal it was 87.8 µM; in the assay on HL-60(TB) leukemia, 38.7 µM; in the assay with RPMI-8226 leukemia, 83.7 µM. The TGI in the assay with SN12C renal amounted to 59.8 µM; in the assay on OVCAR-5 ovarian, 84.7 µM; in the assay on HOP-92 NSCLC, 51.5 µM; with RXF 393 renal it was 16.8 µM.

As to `O=c1[nH]c2cc([N+](=O)[O-])c(N/N=C/c3ccc(Cl)cc3Cl)c([N+](=O)[O-])c2[nH]1`, the TGI in the assay on NCI-H522 lung was 94 µM; in the assay on SF-295 CNS, more than 100 µM; with OVCAR-4 ovarian, 94.6 µM; with TK-10 renal, more than 100 µM; in the assay on HL-60(TB) leukemia, more than 100 µM; in the assay on RPMI-8226 leukemia it was more than 100 µM. Moreover, the TGI is more than 100 µM in the assay on SN12C renal, more than 100 µM in the assay on OVCAR-5 ovarian, more than 100 µM in the assay on HOP-92 NSCLC and 40.9 µM in the assay on RXF 393 renal.

`Cn1cc(-c2nnc(-c3ccc(Cl)cc3)[nH]c2=O)c2ccccc21`: the TGI is 6.16 µM with NCI-H522 lung; more than 28.3 µM with SF-295 CNS; more than 100 µM in the assay on OVCAR-4 ovarian; 42.7 µM in the assay on TK-10 renal; more than 24 µM in the assay on HL-60(TB) leukemia; 44.7 µM in the assay with RPMI-8226 leukemia. In addition, the TGI in the assay with SN12C renal was more than 64 µM; in the assay with OVCAR-5 ovarian, more than 100 µM; in the assay on HOP-92 NSCLC, more than 100 µM; in the assay with RXF 393 renal, more than 22.1 µM.

For the compound `CCOC(=O)/C(=C\NC(C)(C)CO)c1nc2ccccc2[nH]1`, the TGI in the assay with NCI-H522 lung, with SF-295 CNS, in the assay with OVCAR-4 ovarian, in the assay on TK-10 renal, with HL-60(TB) leukemia and in the assay with RPMI-8226 leukemia was more than 100 µM throughout. Also, the TGI in the assay on SN12C renal, in the assay with OVCAR-5 ovarian, with HOP-92 NSCLC and in the assay on RXF 393 renal was more than 100 µM throughout.

For `CN1NC(c2ccccc2)=C(C#N)C(=O)CC1c1ccc(F)cc1` (stereo not given), the TGI with NCI-H522 lung, in the assay on SF-295 CNS, in the assay with OVCAR-4 ovarian, in the assay on TK-10 renal, with HL-60(TB) leukemia and in the assay on RPMI-8226 leukemia was more than 100 µM in each case. Moreover, the TGI with SN12C renal, in the assay on OVCAR-5 ovarian, in the assay with HOP-92 NSCLC and in the assay on RXF 393 renal was more than 100 µM in each case.

Regarding `N=C(N)c1ccc(N=Nc2c(O)ccc3cc4c(N=Nc5ccc(C(=N)N)cc5)c(O)ccc4cc23)cc1`, the TGI with NCI-H522 lung was more than 100 µM; with SF-295 CNS, more than 100 µM; with OVCAR-4 ovarian, more than 100 µM; with TK-10 renal, more than 100 µM; in the assay with HL-60(TB) leukemia it was 84.6 µM; with RPMI-8226 leukemia it was more than 100 µM. Further, the TGI with SN12C renal, in the assay with OVCAR-5 ovarian, in the assay with HOP-92 NSCLC and with RXF 393 renal was more than 100 µM in each case.
